Test results: patent US11890288B2, “Sulfonamide or sulfinamide compound having effect of inducing BRD4 protein degradation and pharmaceutical use thereof” (MITSUBISHI TANABE PHARMA CORPORATION, priority 2020, dated 2024)
pIC50: −log10 of the molar value.

Key:
[1] = test system: human prostate cancer LNCaP cells; assay: Cytotoxic action on LNCaP cells (WST-8, 96 hr); assay type: cell-based; settings: 96 hr culture
In short: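 Overnight pre-culture (10% FBS/RPMI1640, 37° C, 5% CO2) → compound from DMSO stock diluted in medium → 96 hr → WST-8 viable count. IC50 = conc. at 50% survival vs untreated, linear interpolation. (+)-JQ1 as positive control.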

[2] = target: BRD4 protein (Homo sapiens (Human), UniProt O60885); assay: BRD4 protein degradation inducing action in LNCaP cells (immunofluorescence, 6 hr); assay type: cell-based; settings: anti-BRD4 fluorescence intensity
In short: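 LNCaP cells in 10% FBS/RPMI1640 exposed to compound for 6 hr, fixed, permeabilized and immunostained for BRD4 with Alexa Fluor 546 secondary; fluorescence (ex 560, em 572 nm) read by imaging. DC50 = concentration giving 50% of untreated signal, interpolated linearly between the two bracketing points.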

| SMILES | pIC50 [1] | DC50 [2] [pM] |
| --- | --- | --- |
| COC(=O)C[C@@H]1N=C(c2ccc(-c3cnc(C(=O)N[C@H](C)c4ccc(S(=O)(=O)Nc5ccc(C)c6c(C#N)c[nH]c56)cc4)cn3)cc2)c2c(sc(C)c2C)-n2c(C)nnc21 [Example 103, methyl {(6S)-4-[4-(5-{[(1R)-1-{4-[(3-cyano-4-methyl-1H-indol-7-yl)sulfamoyl]phenyl}ethyl]carbamoyl}pyrazin-2-yl)phenyl]-2,3,9-trimethyl-6H-thieno[3,2-f][1,2,4]triazolo[4,3-a][1,4]diazepin-6-yl}acetate] | 10.17 | 30 |
| COC(=O)C[C@@H]1N=C(c2ccc(-c3ccc(C(=O)NCc4ccc(S(=O)(=O)Nc5ccc(C)c6c(C#N)c[nH]c56)cc4)cc3F)cc2)c2c(sc(C)c2C)-n2c(C)nnc21 [Example 45, methyl [(6S)-4-{4′-[({4-[(3-cyano-4-methyl-1H-indol-7-yl)sulfamoyl]phenyl}methyl)carbamoyl]-2′-fluoro[1,1′-biphenyl]-4-yl}-2,3,9-trimethyl-6H-thieno[3,2-f][1,2,4]triazolo[4,3-a][1,4]diazepin-6-yl]acetate] | 9.66 | 190 |
| CCc1ccc(NS(=O)(=O)c2ccc(CNC(=O)c3ccc(-c4ccc(C5=N[C@@H](CC(=O)OC)c6nnc(C)n6-c6sc(C)c(C)c65)cc4)cc3Cl)cc2)c2[nH]cc(C#N)c12 [Example 113, methyl [(6S)-4-{3′-chloro-4′-[({4-[(3-cyano-4-ethyl-1H-indol-7-yl)sulfamoyl]phenyl}methyl)carbamoyl][1,1′-biphenyl]-4-yl}-2,3,9-trimethyl-6H-thieno[3,2-f][1,2,4]triazolo[4,3-a][1,4]diazepin-6-yl]acetate] | 9.52 | 330 |
| COC(=O)C[C@@H]1N=C(c2ccc(-c3ccc(C(=O)NCCc4ccc(S(=O)(=O)Nc5ccc(C)c6c(C#N)c[nH]c56)cc4)c(F)c3F)cc2)c2c(sc(C)c2C)-n2c(C)nnc21 [Example 100, methyl [(6S)-4-{4′-[(2-{4-[(3-cyano-4-methyl-1H-indol-7-yl)sulfamoyl]phenyl}ethyl)carbamoyl]-2′,3′-difluoro[1,1′-biphenyl]-4-yl}-2,3,9-trimethyl-6H-thieno[3,2-f][1,2,4]triazolo[4,3-a][1,4]diazepin-6-yl]acetate] | 9.80 | 85 |
| COC(=O)C[C@@H]1N=C(c2ccc(C3=CCN(C(=O)NCc4ccc(S(=O)(=O)Nc5ccc(C)c6c(C#N)c[nH]c56)cc4)CC3)cc2)c2c(sc(C)c2C)-n2c(C)nnc21 [Example 21, methyl [(6S)-4-(4-{1-[({4-[(3-cyano-4-methyl-1H-indol-7-yl)sulfamoyl]phenyl}methyl)carbamoyl]-1,2,3,6-tetrahydropyridin-4-yl}phenyl)-2,3,9-trimethyl-6H-thieno[3,2-f][1,2,4]triazolo[4,3-a][1,4]diazepin-6-yl]acetate] | 8.01 | 6700 |
| COC(=O)C[C@@H]1N=C(c2ccc(-c3cc(C)c(C(=O)NCc4ccc(S(=O)(=O)Nc5ccc(C)c6c(C#N)c[nH]c56)cc4)cc3F)cc2)c2c(sc(C)c2C)-n2c(C)nnc21 [Example 83, methyl [(6S)-4-{4′-[({4-[(3-cyano-4-methyl-1H-indol-7-yl)sulfamoyl]phenyl}methyl)carbamoyl]-2′-fluoro-5′-methyl[1,1′-biphenyl]-4-yl}-2,3,9-trimethyl-6H-thieno[3,2-f][1,2,4]triazolo[4,3-a][1,4]diazepin-6-yl]acetate] | 9.48 | 250 |
| CCc1ccc(NS(=O)(=O)c2ccc(CNC(=O)c3ccc(-c4ccc(C5=N[C@@H](CC(=O)OC)c6nnc(C)n6-c6sc(C)c(C)c65)cc4)cn3)cc2)c2[nH]cc(C#N)c12 [Example 108, methyl [(6S)-4-(4-{6-[({4-[(3-cyano-4-ethyl-1H-indol-7-yl)sulfamoyl]phenyl}methyl)carbamoyl]pyridin-3-yl}phenyl)-2,3,9-trimethyl-6H-thieno[3,2-f][1,2,4]triazolo[4,3-a][1,4]diazepin-6-yl]acetate] | 9.64 | 69 |
| COC(=O)C[C@@H]1N=C(c2ccc(-c3cnc(C(=O)NCc4ccc(S(=O)(=O)Nc5ccc(C)c6c(C#N)c[nH]c56)cc4)cc3C)cc2)c2c(sc(C)c2C)-n2c(C)nnc21 [Example 101, methyl [(6S)-4-(4-{6-[({4-[(3-cyano-4-methyl-1H-indol-7-yl)sulfamoyl]phenyl}methyl)carbamoyl]-4-methylpyridin-3-yl}phenyl)-2,3,9-trimethyl-6H-thieno[3,2-f][1,2,4]triazolo[4,3-a][1,4]diazepin-6-yl]acetate] | 9.57 | 150 |
| Cc1cc(-c2ccc(C3=N[C@@H](CC(=O)OC(C)(C)C)c4nnc(C)n4-c4sc(C)c(C)c43)cc2)ccc1C(=O)NCc1ccc(S(=O)(=O)Nc2ccc(C)c3c(C#N)c[nH]c23)cc1 [Example Compound 141, t-butyl [(6S)-4-{4′-[({4-[(3-cyano-4-methyl-1H-indol-7-yl)sulfamoyl]phenyl}methyl)carbamoyl]-3′-methyl[1,1′-biphenyl]-4-yl}-2,3,9-trimethyl-6H-thieno[3,2-f][1,2,4]triazolo[4,3-a][1,4]diazepin-6-yl]acetate] | 9.04 | 470 |
| CCc1ccc(NS(=O)(=O)c2ccc(CCNC(=O)c3ccc(-c4ccc(C5=N[C@@H](CC(=O)OC)c6nnc(C)n6-c6sc(C)c(C)c65)cc4)c(F)c3F)cc2)c2[nH]cc(C#N)c12 [Example Compound 125, methyl [(6S)-4-{4′-[(2-{4-[(3-cyano-4-ethyl-1H-indol-7-yl)sulfamoyl]phenyl}ethyl)carbamoyl]-2′,3′-difluoro[1,1′-biphenyl]-4-yl}-2,3,9-trimethyl-6H-thieno[3,2-f][1,2,4]triazolo[4,3-a][1,4]diazepin-6-yl]acetate] | 9.43 | 170 |
| CCc1ccc(NS(=O)(=O)c2ccc([C@@H](C)NC(=O)c3ccc(-c4ccc(C5=N[C@@H](CC(=O)OC)c6nnc(C)n6-c6sc(C)c(C)c65)cc4)c(F)c3)cc2)c2[nH]cc(C#N)c12 [Example Compound 121, methyl [(6S)-4-(4′-{[(1R)-1-{4-[(3-cyano-4-ethyl-1H-indol-7-yl)sulfamoyl]phenyl}ethyl]carbamoyl}-2′-fluoro[1,1′-biphenyl]-4-yl)-2,3,9-trimethyl-6H-thieno[3,2-f][1,2,4]triazolo[4,3-a][1,4]diazepin-6-yl]acetate] | 9.66 | 170 |
| COC(=O)C[C@@H]1N=C(c2ccc(C#CC(=O)NCc3ccc(S(=O)(=O)Nc4ccc(C)c5c(C#N)c[nH]c45)cc3)cc2)c2c(sc(C)c2C)-n2c(C)nnc21 [Example 5, methyl [(6S)-4-(4-{3-[({4-[(3-cyano-4-methyl-1H-indol-7-yl)sulfamoyl]phenyl}methyl)amino]-3-oxoprop-1-yn-1-yl}phenyl)-2,3,9-trimethyl-6H-thieno[3,2-f][1,2,4]triazolo[4,3-a][1,4]diazepin-6-yl]acetate] | 8.39 | 15000 |
| COC(=O)C[C@@H]1N=C(c2ccc(-c3ccc(C(=O)NCc4ccc(S(=O)(=O)Nc5ccc(C)c6c(Cl)c[nH]c56)cc4)cc3)cc2)c2c(sc(C)c2C)-n2c(C)nnc21 [Example 8, methyl [(6S)-4-{4′-[({4-[(3-chloro-4-methyl-1H-indol-7-yl)sulfamoyl]phenyl}methyl)carbamoyl][1,1′-biphenyl]-4-yl}-2,3,9-trimethyl-6H-thieno[3,2-f][1,2,4]triazolo[4,3-a][1,4]diazepin-6-yl]acetate] | 8.55 | 2400 |
